Laboratory results taken from US20210395249A1, “NEW ALKOXYAMINOPYRIDINE DERIVATIVES FOR TREATING PAIN AND PAIN RELATED CONDITIONS” (ESTEVE PHARMACEUTICALS, S.A., priority 2018, published 2021).

Key:
[1] = target: Human α2δ-1 subunit of Cav2.2 calcium channel (Homo sapiens, UniProt P54289); test: Binding assay to human α2δ-1 subunit of Cav2.2 calcium channel ([3H]-Gabapentin); details: human α2δ-1 enriched membranes, [3H]-Gabapentin 15 nM; read-out: Ki(nM) alpha2delta Hum
Method: Binding Assay to Human α2δ-1 Subunit of Cav2.2 Calcium Channel
Human α2δ-1 enriched membranes (2.5 μg) were incubated with 15 nM of radiolabeled [3H]-Gabapentin in assay buffer containing Hepes-KOH 10 mM, pH 7.4. NSB (non-specific binding) was measured by adding 10 μM pregabalin. The binding of the test compound was measured at either one concentration (% inhibition at 1 or 10 μM) or five different concentrations to determine affinity values (Ki). After 60 min incubation at 27° C., binding reaction was terminated by filtering through Multiscreen GF/C (Millipore) presoaked in 0.5% polyethyleneimine in Vacuum Manifold Station, followed by 3 washes with ice-cold filtration buffer containing 50 mM Tris-HCl, pH 7.4. Filter plates were dried at 60° C. for 1 hour and 30 μl of scintillation cocktail were added to each well before radioactivity reading. Readings were performed in a Trilux 1460 Microbeta radioactive counter (Perkin Elmer).

[2] = target: Human norepinephrine transporter (NET) (Homo sapiens, UniProt P23975); test: Binding assay to human norepinephrine transporter (NET) ([3H]-Nisoxetin); details: human NET enriched membranes, [3H]-Nisoxetin 5 nM; read-out: Ki(nM) NET Hum
Method: Binding Assay to Human Norepinephrine Transporter (NET)
Human norepinephrine transporter (NET) enriched membranes (5 μg) were incubated with 5 nM of radiolabeled [3H]-Nisoxetin in assay buffer containing 50 mM Tris-HCl, 120 mM NaCl, 5 mM KCl, pH 7.4. NSB (non specific binding) was measured by adding 10 μM of desipramine. The binding of the test compound was measured at either one concentration (% inhibition at 1 or 10 μM) or five different concentrations to determine affinity values (Ki). After 60 min incubation at 4° C., binding reaction was terminated by filtering through Multiscreen GF/C (Millipore) presoaked in 0.5% polyethyleneimine in Vacuum Manifold Station, followed by 3 washes with ice-cold filtration buffer containing 50 mM Tris-HCl, 0.9% NaCl, pH 7.4. Filter plates were dried at 60° C. for 1 hour and 30 μl of scintillation cocktail were added to each well before radioactivity reading. Readings were performed in a Trilux 1450 Microbeta radioactive counter (Perkin Elmer).

Chain of Human norepinephrine transporter (NET) (P23975 whole entry): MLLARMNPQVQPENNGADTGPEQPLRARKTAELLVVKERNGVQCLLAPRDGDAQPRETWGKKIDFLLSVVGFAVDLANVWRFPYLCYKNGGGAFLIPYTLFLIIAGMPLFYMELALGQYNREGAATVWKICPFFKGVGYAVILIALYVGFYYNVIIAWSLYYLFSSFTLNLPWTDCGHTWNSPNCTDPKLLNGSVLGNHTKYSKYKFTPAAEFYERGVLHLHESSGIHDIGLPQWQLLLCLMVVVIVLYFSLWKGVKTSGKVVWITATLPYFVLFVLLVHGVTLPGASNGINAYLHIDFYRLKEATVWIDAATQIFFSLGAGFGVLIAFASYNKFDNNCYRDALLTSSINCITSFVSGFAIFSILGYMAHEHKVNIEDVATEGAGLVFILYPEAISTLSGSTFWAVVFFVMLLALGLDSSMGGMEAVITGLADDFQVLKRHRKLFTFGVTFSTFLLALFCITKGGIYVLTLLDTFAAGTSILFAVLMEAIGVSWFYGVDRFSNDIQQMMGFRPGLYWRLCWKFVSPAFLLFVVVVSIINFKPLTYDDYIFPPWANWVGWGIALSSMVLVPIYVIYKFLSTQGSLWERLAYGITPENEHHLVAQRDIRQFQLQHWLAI
Chain of Human α2δ-1 subunit of Cav2.2 calcium channel (P54289 25-1103): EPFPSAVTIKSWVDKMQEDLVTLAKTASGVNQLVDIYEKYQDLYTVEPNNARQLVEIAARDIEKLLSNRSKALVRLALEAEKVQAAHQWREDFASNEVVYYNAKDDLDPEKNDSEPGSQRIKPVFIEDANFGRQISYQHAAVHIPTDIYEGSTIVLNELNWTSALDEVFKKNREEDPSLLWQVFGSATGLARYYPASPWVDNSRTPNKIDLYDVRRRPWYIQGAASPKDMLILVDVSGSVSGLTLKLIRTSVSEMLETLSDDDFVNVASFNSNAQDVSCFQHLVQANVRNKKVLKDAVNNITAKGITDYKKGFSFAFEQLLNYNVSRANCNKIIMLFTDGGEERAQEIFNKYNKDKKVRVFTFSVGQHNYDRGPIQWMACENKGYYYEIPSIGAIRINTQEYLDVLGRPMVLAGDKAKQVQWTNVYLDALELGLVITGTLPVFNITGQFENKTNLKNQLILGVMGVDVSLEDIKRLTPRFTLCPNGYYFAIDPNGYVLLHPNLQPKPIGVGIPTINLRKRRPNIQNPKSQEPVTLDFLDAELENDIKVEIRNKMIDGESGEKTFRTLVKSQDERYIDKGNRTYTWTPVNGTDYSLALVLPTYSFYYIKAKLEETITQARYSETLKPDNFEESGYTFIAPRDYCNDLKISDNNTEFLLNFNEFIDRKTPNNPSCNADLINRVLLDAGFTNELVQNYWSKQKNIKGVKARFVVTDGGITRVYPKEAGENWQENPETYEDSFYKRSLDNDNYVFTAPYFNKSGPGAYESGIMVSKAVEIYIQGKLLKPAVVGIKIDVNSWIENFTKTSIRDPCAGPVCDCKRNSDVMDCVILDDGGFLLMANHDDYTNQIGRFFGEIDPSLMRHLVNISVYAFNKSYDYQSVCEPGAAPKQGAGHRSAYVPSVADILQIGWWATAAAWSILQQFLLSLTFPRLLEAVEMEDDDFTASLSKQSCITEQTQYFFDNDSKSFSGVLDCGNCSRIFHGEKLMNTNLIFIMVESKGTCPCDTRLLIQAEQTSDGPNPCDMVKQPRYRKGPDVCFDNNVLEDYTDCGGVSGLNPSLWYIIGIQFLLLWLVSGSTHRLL

Structure (SMILES): CNCC[C@H](Oc1cnc(CN2CCN(C)c3ncccc3C2=O)c(F)c1)c1ccccc1 [Example 1, (S)-4-((3-Fluoro-5-(3-(methylamino)-1-phenylpropoxy)pyridin-2-yl)methyl)-1-methyl-1,2,3,4-tetrahydro-5H-pyrido[2,3-e][1,4]diazepin-5-one]
- Ki [1]: < 100 nM
- Ki [2]: < 100 nM

Structure (SMILES): CNCC[C@H](Oc1cnc(CN2CCN(C)c3ncc(F)cc3C2=O)c(F)c1)c1cccc(F)c1 [Example 2, (S)-7-fluoro-4-((3-fluoro-5-(1-(3-fluorophenyl)-3-(methylamino)propoxy)pyridin-2-yl)methyl)-1-methyl-1,2,3,4-tetrahydro-5H-pyrido[2,3-e][1,4]diazepin-5-one]
- Ki [1]: 100 to 500 nM
- Ki [2]: < 100 nM

Structure (SMILES): CNCC[C@H](Oc1cnc(CN2CCN(C)c3nc(N)ccc3C2=O)c(F)c1)c1cccc(F)c1 [Example 3, (S)-8-amino-4-((3-fluoro-5-(1-(3-fluorophenyl)-3-(methylamino)propoxy)pyridin-2-yl)methyl)-1-methyl-1,2,3,4-tetrahydro-5H-pyrido[2,3-e][1,4]diazepin-5-one]
- Ki [1]: < 100 nM
- Ki [2]: < 100 nM

Structure (SMILES): CCNc1ccc2c(n1)N(C)CCN(Cc1ncc(O[C@@H](CCNC)c3cccc(F)c3)cc1F)C2=O [Example 4, (S)-8-(ethylamino)-4-((3-fluoro-5-(1-(3-fluorophenyl)-3-(methylamino)propoxy)pyridin-2-yl)methyl)-1-methyl-1,2,3,4-tetrahydro-5H-pyrido[2,3-e][1,4]diazepin-5-one]
- Ki [1]: < 100 nM
- Ki [2]: < 100 nM

Structure (SMILES): CNCC[C@H](Oc1cnc(CN2CCN(C)c3ncccc3C2=O)c(Cl)c1)c1cccc(F)c1 [Example 5, (S)-4-((3-chloro-5-(1-(3-fluorophenyl)-3-(methylamino)propoxy)pyridin-2-yl)methyl)-1-methyl-1,2,3,4-tetrahydro-5H-pyrido[2,3-e][1,4]diazapin-5-one]
- Ki [1]: < 100 nM
- Ki [2]: < 100 nM

Structure (SMILES): CNCC[C@H](Oc1cnc(CN2CCN(C)c3cnc(OC)cc3C2=O)c(F)c1)c1cccc(F)c1 [Example 6, (S)-4-((3-fluoro-5-(1-(3-fluorophenyl)-3-(methylamino)propoxy)pyridin-2-yl)methyl)-7-methoxy-1-methyl-1,2,3,4-tetrahydro-5H-pyrido[3,4-e][1,4]diazepin-5-one]
- Ki [1]: < 100 nM
- Ki [2]: < 100 nM

Structure (SMILES): CNCC[C@H](Oc1cnc(CN2CCN(C)c3ncccc3C2=O)c(F)c1)c1cccc(F)c1 [Example 7, (S)-4-((3-fluoro-5-(1-(3-fluorophenyl)-3-(methylamino)propoxy)pyridin-2-yl)methyl)-1-methyl-1,2,3,4-tetrahydro-5H-pyrido[2,3-e][1,4]diazepin-5-one]
- Ki [1]: 100 to 500 nM
- Ki [2]: < 100 nM

Structure (SMILES): CNCC[C@H](Oc1cnc(CN2CCN(C)c3ncccc3C2=O)c(F)c1)c1cccs1 [Example 8, (S)-4-((3-Fluoro-5-(3-(methylamino)-1-(thiophen-2-yl)propoxy)pyridin-2-yl)methyl)-1-methyl-1,2,3,4-tetrahydro-5H-pyrido[2,3-e][1,4]diazepin-5-one]
- Ki [1]: 100 to 500 nM
- Ki [2]: < 100 nM
